In one series the target is HuNoV (GII.4) RdRp (Norovirus Hu/GII.4/Sydney/NSW0514/2012/AU, UniProt K4L8Z7). Nature of the series: Quantitative fluorescent RdRp activity assay (PicoGreen, poly(C) template). Type of series: biochemical, human norovirus Sydney 2012. To be noted: 20 µM; for inhibition at 20 µM: read-out: inhibition of HuNoV RdRp activity at fixed concentration. Put shortly: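 Enzyme (400 ng) preincubated with compound 10 min at 30 °C, then reacted 15 min at 30 °C with 45 μM GTP, 10 ng/μL poly(C), 2.5 mM MnCl2, pH 7.5. Stopped with EDTA; dsRNA quantified by PicoGreen. Six concentrations (0.1–100 µM) gave IC50, or single 20 µM screen vs 0.5% DMSO.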

Series [1] is described as follows: Cytotoxicity by the MTS method on uninfected cells. Type of series: cell-based. To be noted: mouse, uninfected RAW 264.7 cells, Table 2, at least three independent experiments. As to the method:
Cytotoxicity: The cytotoxicity of the Compounds was evaluated by the MTS method, by exposing uninfected cells to the same concentrations of compounds for 3 days. The %cell viability was calculated as (ODtreated/ODCC) × 100, where ODCC is the OD of uninfected untreated cells and ODtreated are uninfected cells treated with compound. The CC50 was defined as the compound concentration that reduces the number of viable cells by 50%[34].

Take `Cc1ccc(C(=O)NC(=S)Nc2ccc(N3CCN(C(=O)c4cccs4)CC3)cc2)cc1` [Compound 52, 4-Methyl-N-((4-(4-(thiophene-2-carbonyl)piperazin-1-yl)phenyl)carbamothioyl)benzamide]: the inhibition at 20 µM on HuNoV (GII.4) RdRp was ~15%. In addition, the 50% cytotoxic concentration (CC50) at 3 days in series [1] was > 100 µM.
With `O=C(NC(=S)Nc1ccc(N2CCN(C(=O)c3cccs3)CC2)cc1)c1sc2ccccc2c1Cl` [Compound 48, 3-Chloro-N-((4-(4-(thiophene-2-carbonyl)piperazin-1-yl)phenyl)carbamothioyl)benzo[b]thiophene-2-carboxamide, reference compound], the inhibition at 20 µM at HuNoV (GII.4) RdRp turned out to be 20%. For the same compound, the CC50 at 3 days in series [1] was > 100 µM.
Turning to `O=C(NC(=S)Nc1ccc(N2CCN(C(=O)c3nccs3)CC2)cc1)c1sc2ccccc2c1Cl` [Compound 56, 3-Chloro-N-((4-(4-(thiazole-2-carbonyl)piperazin-1-yl)phenyl)carbamothioyl)benzo[b]thiophene-2-carboxamide], the “inhibition of HuNoV RdRp activity at fixed concentration” value on HuNoV (GII.4) RdRp is “does not affect enzymatic inhibition activity”. Besides, the CC50 at 3 days in series [1] is > 100 µM.

By CC50 is commonly meant the concentration at which the toxic effect on the cells reaches its halfway point.

(Values after article PMC6895199, “A new antiviral scaffold for human norovirus identified with computer-aided approaches on the viral polymerase” (Scientific Reports, 2019).)
